Source: patent US20070093520A1, “Method of treatment of diarrhea-predominant irritable bowel syndrome in a subject” (priority 2005, published 2007)

System: diarrhea-predominant IBS subjects
Assay type: in vivo, human
Conditions: TEAE incidence, 2 mg, Safety Population
Protocol: The study was performed in approximately 150 study centers. Approximately 1600 eligible subjects were to be given cilansetron 2 mg TID. At Visit 1, pre-treatment assessments were conducted. […] Subjects were to return to the study site one month later for Visit 3 (Day 31) for their first interim assessment. […] All subjects who discontinued from the study were to have the same post-study assessments required at Visit 7 performed at their early termination visit. […]
Stool specimens were analyzed at every visit for occult blood. An independent GERB had been established to provide advice on GI AEs during the course of the study.
Adverse events were assessed at Baseline, at each clinic visit, and at the end of the study (Month 12 or the early termination visit). All AEs, which occurred during the study were followed up in accordance with good medical practice until resolved or judged no longer clinically significant, or if a condition was chronic, until fully characterized. Adverse events could occur in the specified follow-up period and, regardless of the interval since the last administration of the study medication, were treated in the same manner as an AE which occurred during the treatment with study medication. Each AE was evaluated for duration, severity, seriousness, and causal relationship to the investigational drug. The action taken and the outcome were also recorded.
Specifically, subjects who were lost to follow-up and had no post-Baseline contact with the site were excluded from the Safety population. The subjects who discontinued from the study due to lost to follow-up were identified based on the information collected on the study termination CRF page.
After the pretreatment assessment at Visit 1 (Days […] to −3), subjects were to return to the study site for a Baseline assessment and start the treatment at Visit 2 (Day 1).
For the by time-interval analyses of disposition, prevalence of AEs, and of markedly abnormal and predefined changes in laboratory values, vital signs, and ECGs, the following interval windows were used:
Adverse events that were already present prior to the first dose of cilansetron study medication but increased in severity afterwards were considered as treatment-emergent.
The 5% cutoff point was based on the incidence within higher level terms.
Subjects were counted at most once for each primary system organ class and preferred term. Serious AEs that resolved prior to receiving study medication or occurred more than 30 days after the last dose of study medication were not included in the incidence tables. A listing of all SAEs is presented; SAEs with onset prior to receiving study medication or more than 30 days after discontinuation of study medication were flagged. The listing presents lower level term and preferred term of the SAE, severity, action taken, outcome, and relationship of the SAE, start and stop date of the SAE, study day of onset of the SAE, age, race, and sex.

## Cc1nccn1C[C@H]1CCc2c(c3cccc4c3n2CCC4)C1=O [cilansetron, (R)-(−)-4,5,6,8,9,10-hexahydro-10-[(2-methyl-1H-imidazol-1-yl)methyl]-11H-pyrido-[3,2,1-jk]-carbazol-11-one]
HLT
  Limb Injuries NEC (Incl Traumatic Amputation): 4 (<1%) n (%)
  Lower Limb Fractures and Dislocations: 4 (<1%) n (%)
  Menopausal Effects NEC*: 2 (<1%) n (%)
  Menopausal Effects on the Genitourinary Tract*: 1 (<1%) n (%)
  Menstruation and Uterine Bleeding NEC*: 3 (<1%) n (%)
  Menstruation with Decreased Bleeding*: 4 (<1%) n (%)
  Menstruation with Increased Bleeding*: 2 (<1%) n (%)
  Mental Disorders NEC: 1 (<1%) n (%)
  Metabolic Bone Disorders: 4 (<1%) n (%)
  Mood Alterations with Depressive Symptoms: 1 (<1%) n (%)
  Muscle Pains: 12 (<1%) n (%)
  Muscle Related Signs and Symptoms NEC: 8 (<1%) n (%)
  Muscle, Tendon and Ligament Injuries: 14 (<1%) n (%)
  Myocardial Disorders NEC: 2 (<1%) n (%)
  Nasal Congestion and Inflammations: 10 (<1%) n (%)
  Nasal Disorders NEC: 5 (<1%) n (%)
  Non-Site Specific Injuries NEC: 10 (<1%) n (%)
  Non-Site Specific Procedural Complications: 5 (<1%) n (%)
  Oedema NEC: 1 (<1%) n (%)
  Osteoarthropathies: 4 (<1%) n (%)
  Ovarian and Fallopian Tube Cysts and Neoplasms*: 2 (<1%) n (%)
  Pain and Discomfort NEC: 20 (1%) n (%)
  Panic Disorders: 4 (<1%) n (%)
  Papulosquamous Conditions: 6 (<1%) n (%)
  Paranasal Sinus Disorders (Excl Infections and Neoplasms): 6 (<1%) n (%)
  Parasomnias: 2 (<1%) n (%)
  Pelvic Prolapse*: 2 (<1%) n (%)
  Photosensitivity Conditions: 1 (<1%) n (%)
  Potassium Imbalance: 4 (<1%) n (%)
  Prostatic signs, Symptoms and Disorders NEC*: 4 (<1%) n (%)
  Pruritus NEC: 14 (<1%) n (%)
  Purine Metabolism Disorders NEC: 1 (<1%) n (%)
  Rashes, Eruptions and Exanthems NEC: 13 (<1%) n (%)
  Rate and Rhythm Disorders NEC: 8 (<1%) n (%)
  Renal Lithiasis: 2 (<1%) n (%)
  Renal Neoplasms: 1 (<1%) n (%)
  Reproductive Tract Disorders NEC (Excl Neoplasms): 1 (<1%) n (%)
  Reproductive Tract Signs and Symptoms NEC: 2 (<1%) n (%)
  Respiratory Tract Disorders NEC: 1 (<1%) n (%)
  Rheumatoid Arthropathies: 2 (<1%) n (%)
  Rosaceas: 1 (<1%) n (%)
  Scalar Conditions: 1 (<1%) n (%)
  Sebaceous Gland Disorders: 1 (<1%) n (%)
  Sexual Desire Disorders: 2 (<1%) n (%)
  Site Specific Injuries NEC: 17 (1%) n (%)
  Skin Injuries and Mechanical Dermatoses: 3 (<1%) n (%)
  Skin Neoplasms Benign: 1 (<1%) n (%)
  Skin Preneoplastic Conditions NEC: 1 (<1%) n (%)
  Skin and Subcutaneous Tissue Ulcerations: 1 (<1%) n (%)
  Sleep Disorders NEC: 2 (<1%) n (%)
  Sodium Imbalance: 1 (<1%) n (%)
  Soft Tissue Disorders NEC: 6 (<1%) n (%)
  Spondyloarthropathies: 2 (<1%) n (%)
  Structural and Obstructive Urethral Disorders (Excl Congenital): 1 (<1%) n (%)
  Supraventricular Arrhythmias: 18 (1%) n (%)
  Tendon Disorders: 3 (<1%) n (%)
  Thermal Burns: 1 (<1%) n (%)
  Thoracic Cage Fractures and Dislocations: 2 (<1%) n (%)
  Total Fluid Volume Increased: 1 (<1%) n (%)
  Upper Limb Fractures and Dislocations: 7 (<1%) n (%)
  Upper Respiratory Tract Signs and Symptoms: 36 (2%) n (%)
  Urinary Abnormalities: 8 (<1%) n (%)
  Urinary Tract Lithiasis (Excl Renal): 2 (<1%) n (%)
  Urinary Tract Signs and Symptoms NEC: 8 (<1%) n (%)
  Urticarias: 4 (<1%) n (%)
  Ventricular Arrhythmias and Cardiac Arrest: 3 (<1%) n (%)
  Water Soluble Vitamin Deficiencies: 2 (<1%) n (%)
HLT (skin SOC)
  Connective Tissue Disorders: 1 (<1%) n (%)
PT
  Abrasion NOS: 1 (<1%) n (%)
  Acne Aggravated: 1 (<1%) n (%)
  Acne NOS: 1 (<1%) n (%)
  Acute Myocardial Infarction: 2 (<1%) n (%)
  Affect Lability: 1 (<1%) n (%)
  Alopecia: 1 (<1%) n (%)
  Alopecia Areata: 1 (<1%) n (%)
  Amenorrhoea NOS*: 2 (<1%) n (%)
  Anal Injury: 1 (<1%) n (%)
  Angina Pectoris: 2 (<1%) n (%)
  Animal Bite: 2 (<1%) n (%)
  Ankle Fracture: 1 (<1%) n (%)
  Anorexia: 11 (<1%) n (%)
  Anxiety: 12 (<1%) n (%)
  Anxiety Aggravated: 1 (<1%) n (%)
  Anxiety Disorder: 1 (<1%) n (%)
  Appetite Decreased NOS: 2 (<1%) n (%)
  Appetite Increased NOS: 2 (<1%) n (%)
  Arthralgia: 29 (2%) n (%)
  Arthralgia Aggravated: 1 (<1%) n (%)
  Arthritis NOS: 1 (<1%) n (%)
  Arthropod Sting: 2 (<1%) n (%)
  Asthenia: 2 (<1%) n (%)
  Asthma Aggravated: 2 (<1%) n (%)
  Asthma NOS: 6 (<1%) n (%)
  Atrial Fibrillation: 2 (<1%) n (%)
  Atrial Fibrillation Aggravated: 1 (<1%) n (%)
  Atrial Flutter: 1 (<1%) n (%)
  Atrial Hypertrophy: 1 (<1%) n (%)
  Atrioventricular Block NOS: 1 (<1%) n (%)
  Axillary Pain: 1 (<1%) n (%)
  Back Injury NOS: 3 (<1%) n (%)
  Back Pain Aggravated: 2 (<1%) n (%)
  Benign Prostatic Hyperplasia*: 3 (<1%) n (%)
  Bloody Discharge: 1 (<1%) n (%)
  Bradycardia NOS: 2 (<1%) n (%)
  Breast Cyst*: 2 (<1%) n (%)
  Breast Engorgement*: 1 (<1%) n (%)
  Breast Pain*: 2 (<1%) n (%)
  Breast Tenderness*: 1 (<1%) n (%)
  Bundle Branch Block Right: 3 (<1%) n (%)
  Bursitis: 1 (<1%) n (%)
  Calculus Renal NOS: 2 (<1%) n (%)
  Calculus Ureteric: 2 (<1%) n (%)
  Catarrh: 2 (<1%) n (%)
